Assay results taken from PMC5814047, “Peptidic inhibitors of insulin-degrading enzyme with potential for dermatological applications discovered via phage display” (PLoS ONE, 2018).
Values joined by “and” are separate entries in the source; they are usually repeats but may differ in a detail not shown here. Equal entries are not always repeated. “Also recorded” adds a separate entry of the source. Where two headings read alike, the source gives them in different places. Bridge positions count the residues as written; N and C are the ends. Peptide text beside a SMILES is read from it.

Legend:
[1] = system: primary murine skin fibroblasts; test: Cell proliferation (CellTiter 96 AQueous); format: cell-based; settings: for Cell count, Mean / Cell count: P12-3A 100 uM, 100nM insulin added, cells per well; for Cell count, Mean: N 6; for Cell count: individual replicates
Description: Insulin promotes wound healing and overall skin health by affecting a number of processes, including cell proliferation, cell migration, and the production and secretion of ECM components, particularly type I collagen. We therefore assessed the ability of P12-3A to influence these processes in cultured skin fibroblasts and keratinocytes. To that end, primary mouse skin fibroblasts were grown for 4 d in multiple concentrations of insulin in the presence or absence of P12-3A, and insulin concentration over time was monitored by ELISA. […] Finally, the effects of P12-3A on collagen production in were assessed at both the transcriptional and the posttranslational level in confluent monolayers of fibroblasts. After 4 d of treatment with P12-3A (100 μM), mRNA levels for the major form of collagen, alpha-1 type I collagen (COL1A1), were quantified by RT-PCR and found to be increased to ~2.6 times the levels of untreated cells (Fig 4C). To assess overall levels of collagen production and secretion, we quantified levels of hydroxyproline, a modified amino acid present almost exclusively in collagen proteins. […] Western blotting also confirmed that mature, cell-associated collagen levels were increased in the presence of P12-3A (Fig 4E).
Fig 4 Effects of P12-3A on cultured skin cells. A, Insulin concentrations as a function of time in logarithmically growing primary murine skin fibroblasts in the absence or presence of P12-3A (100 μM). […] Data are mean ± SEM of 4 independent replications. *P<0.05, **P<0.01. B, Proliferation of cells in the absence or presence of P12-3A (100 μM). Data are mean ± SEM of 6 independent replications. […] C,D,E, P12-3A (100 μM) potentiates insulin-induced collagen production in skin fibroblasts. Collagen production was assessed by COL1A1 mRNA levels (C), levels of hydroxyproline secreted into the medium (D), and cell-associated mature alpha-1 type I collagen levels detected by Western blotting (E). Data are mean ± SD of 4 independent replications. *P<0.05, **P<0.01. […] Migration of HaCaT cells 48 h after induction of a scratch wound in the presence of the indicated quantities of insulin and/or P12-3A (100 μM). Data are mean ± SEM of 6 independent replications. *P<0.05, **P<0.01.
Primary murine skin fibroblasts cells (1 x 10^5/well) were plated in 96-well plates, using separate plates for each timepoint and endpoint. Cell proliferation was quantified using the CellTiter 96® AQueous Non-Radioactive Cell Proliferation Assay (Promega Corp., Madison, WI, USA) according to manufacturer’s recommendations.

[2] = target: T1, IDE (Homo sapiens, UniProt P14735); test: biochemical; settings: for remaining activity at 500 µM: N 4, read-out: Percent activity at 500 uM, Mean
T1 construct: made in house; host or cells: bacteria
T1 sequence (P14735 1-1019): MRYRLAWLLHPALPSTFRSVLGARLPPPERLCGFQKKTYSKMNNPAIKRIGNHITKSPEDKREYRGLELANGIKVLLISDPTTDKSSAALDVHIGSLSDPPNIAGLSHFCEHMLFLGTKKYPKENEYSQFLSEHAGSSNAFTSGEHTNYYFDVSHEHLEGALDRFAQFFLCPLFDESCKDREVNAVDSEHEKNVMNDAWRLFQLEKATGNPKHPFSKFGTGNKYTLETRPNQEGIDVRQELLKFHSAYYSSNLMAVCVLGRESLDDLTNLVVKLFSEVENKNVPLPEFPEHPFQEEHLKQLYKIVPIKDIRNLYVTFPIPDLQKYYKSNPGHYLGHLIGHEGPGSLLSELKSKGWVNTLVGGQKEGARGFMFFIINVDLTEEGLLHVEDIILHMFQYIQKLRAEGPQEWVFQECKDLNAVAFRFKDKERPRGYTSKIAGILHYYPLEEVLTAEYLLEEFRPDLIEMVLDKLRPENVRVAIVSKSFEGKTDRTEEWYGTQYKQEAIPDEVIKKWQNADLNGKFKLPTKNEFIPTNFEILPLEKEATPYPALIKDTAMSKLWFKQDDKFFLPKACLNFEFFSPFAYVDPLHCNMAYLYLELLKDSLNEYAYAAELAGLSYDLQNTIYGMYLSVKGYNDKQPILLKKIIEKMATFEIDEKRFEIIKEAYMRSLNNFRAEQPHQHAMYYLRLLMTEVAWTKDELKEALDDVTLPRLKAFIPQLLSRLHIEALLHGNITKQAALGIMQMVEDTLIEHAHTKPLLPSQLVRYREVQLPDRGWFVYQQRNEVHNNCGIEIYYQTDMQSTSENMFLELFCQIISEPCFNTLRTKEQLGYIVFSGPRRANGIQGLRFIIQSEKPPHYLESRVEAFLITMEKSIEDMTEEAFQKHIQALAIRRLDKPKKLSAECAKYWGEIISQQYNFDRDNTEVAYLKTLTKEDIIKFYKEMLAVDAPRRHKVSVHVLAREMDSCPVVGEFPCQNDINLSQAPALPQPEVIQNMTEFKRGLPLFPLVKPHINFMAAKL
How it was run: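 Recombinant human IDE (1 nM, bacterially expressed) degraded FRET1 substrate (5 μM), fluoresceinated biotinylated amyloid β (500 nM) or human insulin (50 nM) in PBS with 0.05% BSA. Peptides tested included N-acetylated and C-amidated variants.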

- remaining activity at 0.0005 µM ([2]; FRET1, P12-3A 0.0005 uM, Replicates 4-6, read-out: Percent Activity (normalized source data)): 109%
- remaining activity at 0.0016 µM ([2]; FRET1, P12-3A 0.0016 uM, Replicates 4-6, read-out: Percent Activity (normalized source data)): 115%
- remaining activity at 0.005 µM ([2]; FRET1, P12-3A 0.005 uM, Replicates 4-6, read-out: Percent Activity (normalized source data)): 119%
- remaining activity at 0.05 µM ([2]; FRET1, P12-3A 0.050 uM, Replicates 4-6, read-out: Percent Activity (normalized source data)): 134%
- remaining activity at 0.12 µM ([2]; FRET1, P12-3A 0.12 uM, Replicates 1-3, read-out: Percent Activity (normalized source data)): 81.6%
- remaining activity at 0.24 µM ([2]; FRET1, P12-3A 0.24 uM, Replicates 1-3, read-out: Percent Activity (normalized source data)): 82.7%
- remaining activity at 0.49 µM ([2]; FRET1, P12-3A 0.49 uM, Replicates 1-3, read-out: Percent Activity (normalized source data)): 73.4%
- remaining activity at 0.98 µM ([2]; FRET1, P12-3A 0.98 uM, Replicates 1-3, read-out: Percent Activity (normalized source data)): 62.8%
- remaining activity at 3.91 µM ([2]; FRET1, P12-3A 3.91 uM, Replicates 1-3, read-out: Percent Activity (normalized source data)): 45.2%
- remaining activity at 7.81 µM ([2]; FRET1, P12-3A 7.81 uM, Replicates 1-3, read-out: Percent Activity (normalized source data)): 33%
- remaining activity at 15.6 µM ([2]; FRET1, P12-3A 15.6 uM, Replicates 1-3, read-out: Percent Activity (normalized source data)): 38.9%
- remaining activity at 16 µM ([2]; FRET1, P12-3A 16 uM, Replicates 4-6, read-out: Percent Activity (normalized source data)): 45.2%
- remaining activity at 31.2 µM ([2]; FRET1, P12-3A 31.2 uM, Replicates 1-3, read-out: Percent Activity (normalized source data)): 30.6%
- remaining activity at 50 µM ([2]; FRET1, P12-3A 50 uM, Replicates 4-6, read-out: Percent Activity (normalized source data)): 31.6%
- remaining activity at 62.5 µM ([2]; FRET1, P12-3A 62.5 uM, Replicates 1-3, read-out: Percent Activity (normalized source data)): 23.7%
- remaining activity at 125 µM ([2]; FRET1, P12-3A 125 uM, Replicates 1-3, read-out: Percent Activity (normalized source data)): 20.1%
- remaining activity at 158 µM ([2]; FRET1, P12-3A 158 uM, Replicates 4-6, read-out: Percent Activity (normalized source data)): 23.8%
- remaining activity at 250 µM ([2]; FRET1, P12-3A 250 uM, Replicates 1-3, read-out: Percent Activity (normalized source data)): 10.4%
- remaining activity at 0.12207 µM ([2]; dose-response, 0.12207 uM, individual runs, read-out: Percent Activity (normalized source data)): 87.1%
- remaining activity at 0.488281 µM ([2]; dose-response, 0.488281 uM, individual runs, read-out: Percent Activity (normalized source data)): 82.8%
- remaining activity at 1.95312 µM ([2]; dose-response, 1.95312 uM, individual runs, read-out: Percent Activity (normalized source data)): 78.7%
- remaining activity at 7.8125 µM ([2]; dose-response, 7.8125 uM, individual runs, read-out: Percent Activity (normalized source data)): 74%
- remaining activity at 31.25 µM ([2]; dose-response, 31.25 uM, individual runs, read-out: Percent Activity (normalized source data)): 40.2%
- remaining activity at 125 µM ([2]; dose-response, 125 uM, individual runs, read-out: Percent Activity (normalized source data)): 9.83%
- IC50 <500 uM? ([2]; initial test at 500 uM): YES
- remaining activity at 500 µM ([2]; initial test, percent of initial velocity relative to DMSO-only controls): 3.6%
- remaining activity at 500 µM ([2]; judged as IC50 <100 uM?): 17.1%
SMILES: CC(C)C[C@H](NC(=O)[C@H](CO)NC(=O)[C@@H](N)CCC(N)=O)C(=O)N1CCC[C@H]1C(=O)N[C@@H](Cc1c[nH]c2ccccc12)C(=O)N[C@H]1CSSC[C@@H](C(=O)N[C@H](C(=O)N[C@H](C(N)=O)[C@@H](C)O)C(C)C)NC(=O)[C@H](Cc2c[nH]cn2)NC(=O)[C@@H]2CCCN2C(=O)[C@H](Cc2ccc(O)cc2)NC1=O [P12-3A] (H-QSLPWCYPHCVT-NH2; disulfide 6-10 (inferred))
- cell proliferation relative to control cells ([1]; 100 μM P12-3A, 10 nM insulin): modestly increased; also recorded: No significant differences were observed
- Cell count, Mean ([1]; t 0 d): 0.15 *100,000
- Cell count ([1]; t 0 d): 0.1682 *100,000 and 0.1108 *100,000 and 0.1565 *100,000 and 0.1271 *100,000 and 0.1836 *100,000 and 0.1526 *100,000
- Cell count, Mean ([1]; t 1 d): 0.28 *100,000
- Cell count ([1]; t 1 d): 0.0908 *100,000 and 0.3439 *100,000 and 0.3368 *100,000 and 0.2676 *100,000 and 0.3256 *100,000 and 0.3423 *100,000
- Cell count, Mean ([1]; t 2 d): 0.63 *100,000
- Cell count ([1]; t 2 d): 0.4380 *100,000 and 0.6462 *100,000 and 0.8125 *100,000 and 0.5756 *100,000 and 0.7135 *100,000 and 0.6125 *100,000
- Cell count, Mean ([1]; t 3 d): 1.33 *100,000
- Cell count ([1]; t 3 d): 1.4714 *100,000 and 1.6270 *100,000 and 1.4135 *100,000 and 1.4988 *100,000 and 1.1573 *100,000 and 0.8293 *100,000
- Cell count, Mean ([1]; t 4 d): 2.46 *100,000
- Cell count ([1]; t 4 d): 3.2440 *100,000 and 1.8308 *100,000 and 1.5133 *100,000 and 1.9615 *100,000 and 2.9117 *100,000 and 3.3184 *100,000
